These results are taken from US20250262305A1 (Aegis Therapeutics, LLC, priority 2018, published 2025).

The conditions of data set [1]: single 0.3 mg doses, intranasal and intramuscular; healthy volunteers.
Procedure: Safety. […] Other safety measures included vital sign measurement. Objective evaluations of nasal irritation were assessed after each administration of study drug using a 6-point (0->5) score. […] Irritation was assessed by evaluating the degree of mucosal inflammation and bleeding. The subjects were required to report any incident of bleeding or inflammation in-between the actual evaluation time points.
The ends of the scale were defined as extreme limits of pain sensation: 0=no pain, 10=extreme pain. The subjects were asked to mark a point on the scale which best describes their intensity of pain and discomfort just prior to dosing (baseline) and at 15 (±2 min) and 30 (±5 min) minutes, and 1 (±10 min) hour post dose. The location of the marking at each time point was measured and noted as the reported score.
A short description of another data set: clinical. To be noted: human, in vivo, pH 4, tmax. The method, then: Study Design. A Phase 1, open-label, randomized, single-dose, two-treatment, crossover study was carried out that consisted of a screening period, baseline period, and an open-label treatment period. In the screening period, subjects underwent screening within 21 days prior to entering into the open-label treatment phase of the study.
Safety assessments were performed on each study day and subjects released after discharge assessments on Day 1. Subjects were followed for 6 hours after the administration of the last dose of study drug.
Plasma samples from all subjects that completed two periods of the study were analyzed. […] Actual sampling times were recorded.
(§1) Study Drugs and Administration.
(§2) Each 100 μL spray was administered to the left nostril via a commercially-available multiple dose nasal spray device marketed by Aptar Pharma. Priming of the device (activation 5 times) was done in a hood or priming box within 30 minutes prior to dosing the subject.
(§3) Pharmacokinetic Analysis.
Non-GCP pharmacokinetic analysis was performed using WinNonlin version 7.0. […] Baseline corrected Cmax was calculated from the uncorrected Cmax−PreDose concentration. Baseline corrected AUC0-t was calculated from the uncorrected AUC0-t−PreDose concentration×tlast. […] The point estimates and confidence limits will be exponentiated back to the original scale.

The conditions of data set [2]: cited from earlier work; for Cbaseline: Mean ± SD.
The conditions of data set [3]: male, human, in vivo. The method, then:
In the Screening Period, subjects underwent screening within 28 days prior to entering into the study.
as §1, §2
Participants. […] Plasma samples from all subjects that complete the study were analyzed.
as §3

Where two headings read alike, the source gives them in different places.

Take `CNC[C@H](O)c1ccc(O)c(O)c1` [Epinephrine, (R)-4-(1-Hydroxy-2-(methylamino)ethyl)benzene-1,2-diol]: the adverse events entry in data set [1] is given as “no related adverse events reported”. For the same compound, the Tmax in “clinical” is 53 min. The figures for the Cbaseline in data set [2] (Intramuscular (IM) 0.3 mg) and in data set [2] (Intranasal (IN) 5 mg) were 35 ± 23 pg/mL and 8 ± 6 pg/mL, respectively. The “clearance from the plasma” value in data set [2] (Srisawat's 5 mg intranasal formulation (FIG. 2)) is on record as “cleared from the plasma almost entirely in about two hours”. In data set [2] (intranasal dose level of 2.5 mg and below), the “blood level of epinephrine” value is “no blood level of epinephrine”. The “systemic absorption of epinephrine via the IN route” value in data set [2] (intranasal, dose range of Srisawat (FIG. 1)) is given as “significant systemic absorption of epinephrine via the IN route was observed only at 5 mg”. In data set [3], the rate of absorption result is “rapid, IM-injection-like rate of absorption in the first 20 minutes”.
